Earlier results, collected in US8754055B2, “Methods, compositions, and kits for collecting and detecting oligonucleotides” (The Invention Science Fund I, LLC, priority 2008, dated 2014).
Where two headings read alike, the source gives them in different places.

Assays:
RNase A = target: T1, RNase A (Bos taurus, UniProt P61823); details: RNAse A catalysis, read-out: inhibition constant (Ki)
T1 sequence (P61823 27-150): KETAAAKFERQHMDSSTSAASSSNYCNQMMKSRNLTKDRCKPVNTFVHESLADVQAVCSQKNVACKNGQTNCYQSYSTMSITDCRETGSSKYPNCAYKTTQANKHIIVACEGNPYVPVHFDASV

[1] = 40, 8, and 1.6 μg injections once daily over 35 days
[2] = in humans

Compound: oligo(vinylsulfonic acid)
- Ki (RNase A; 0 mM sodium chloride (lower end of salt-dependent range)): ~0.01 nM
- Ki (RNase A; 100 mM sodium chloride (upper end of salt-dependent range)): ~120 nM

Compound: Nc1ccc(N=Nc2ccc(-c3ccc(O)cc3)cc2)c2ccc(S(=O)(=O)O)cc12 [8-amino-5-(4′-hydroxylbiphenyl-4-ylazo)naphthalene-2-sulfonate]
- overt toxicity [1]: without overt toxicity

Compound: Etanercept
- half-life [2]: 70 h
